Experimental findings from patent US8658661B2, “Oxadiazole inhibitors of leukotriene production” (Boehringer Ingelheim International GmbH, priority 2010, dated 2014) are described below.

Broadly, the IC50 is the concentration that inhibits the measured activity by half.

Each structure is given as a SMILES string.

Test [1] concerns the target T1, recombinant human FLAP protein (Homo sapiens, UniProt P20292).
T1 construct: made in house; host or cells: Sf9 insect cells (100,000×g membrane pellet used)
T1 sequence (P20292 1-161): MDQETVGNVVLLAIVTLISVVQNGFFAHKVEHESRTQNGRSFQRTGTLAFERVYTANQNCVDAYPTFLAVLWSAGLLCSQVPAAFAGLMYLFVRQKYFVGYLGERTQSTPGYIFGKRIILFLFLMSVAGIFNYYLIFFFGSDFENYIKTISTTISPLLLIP
The test is described as follows: FLAP binding assay (SPA, displacement of [125I]L-691,831). The settings on record: membranes of sf9 cells expressing recombinant human FLAP; [125I]L-691,831 probe; read-out: FLAP binding IC50. How it is done:
Assessment of Biological Properties 1. Binding Assay
Compounds are assessed for the ability to bind to FLAP in a binding assay that measures compound-specific displacement of an iodinated (^125I) FLAP inhibitor via a Scintillation Proximity Assay format (adapted from S. Charleson et al., Mol. Pharmacol., 1992, 41, 873-879).
Cell pellets produced from sf9 insect cells expressing recombinant human FLAP protein are resuspended in buffer A [15 mM Tris-HCl (pH 7.5), 2 mM MgCl2, 0.3 mM EDTA, 1 mM PMSF]. The cells are lysed with a Dounce homogenizer and the material is centrifuged at 10,000×g for 10 minutes. The supernatant is then collected and centrifuged at 100,000×g for 60 minutes. To prepare membrane protein for an assay, an aliquot of the 100,000×g pellet is resuspended in 1 ml of buffer A, Dounce homogenized, and finally subjected to polytron mixing (30 seconds). Membrane protein (25 μl, 5 μg) is mixed with WGA SPA beads (Amersham) and stirred for 1 h. […] (final concentrations: beads, 200 μg/well; protein, 5 μg/well; [^125I] probe, 0 08 nM/well (17 nCi/well). The plates are shaken for 2 h before reading on a Microbeta plate reader. Non-specific binding is determined by the addition of 10 μM cold L-691,831 compound.
For orientation: Displacement assays read how much labelled ligand stays bound in the presence of the test substance.

Test [2] deals with synthesis of LTB4 in human whole blood. The test is described as follows: Human whole blood assay (inhibition of LTB4 synthesis, calcimycin stimulated). It counts as cell-based. To be noted: heparinized human whole blood, calcimycin 20 μM, plasma LTB4. How it is done:
Compounds are additionally tested in a human whole blood assay to determine their ability to inhibit the synthesis of LTB4 in a cellular system. Compounds are combined with heparinized human whole blood and incubated for 15 minutes at 37° C. Calcimycin (20 μM final, prepared in phosphate-buffered saline, pH 7.4) is then added and the mixture is incubated for another 30 minutes at 37° C. The samples are centrifuged for 5 min at low speed (1500×g) and the plasma layer is removed. Plasma LTB4 concentrations are then measured using an antibody-based homogenous time-resolved fluorescence method (CisBio, Bedford, Mass.).

In the case of `CC(C)(O)CNc1cnc(-c2nc(C(C)(c3ccc(-c4cnc(N)nc4)cc3)C3CCC3)no2)cn1` (stereo not shown) [Example 35, 1-{[5-(3-{1-[4-(2-aminopyrimidin-5-yl)phenyl]-1-cyclobutylethyl}-1,2,4-oxadiazol-5-yl)pyrazin-2-yl]amino}-2-methylpropan-2-ol], the IC50 in test [1] is 3.2 nM; in test [2], 360 nM.

For `COCCNc1cnc(-c2nc(C(C)(c3ccc(-c4cnc(N)nc4)cc3)C3CCC3)no2)cn1` (stereo not shown) [Example 36, 5-{4-[1-cyclobutyl-1-(5-{5-[(2-methoxyethyl)amino]pyrazin-2-yl}-1,2,4-oxadiazol-3-yl)ethyl]phenyl}pyrimidin-2-amine], the figures for the IC50 in test [1] and in test [2] were 3.2 nM and 170 nM, respectively.

As to `Cc1ccc(-c2nc(C(C)(C)c3ccc(-c4cnc(N)nc4)cc3)no2)cn1` [Example 37, 5-(4-{2-[5-(6-methylpyridin-3-yl)-1,2,4-oxadiazol-3-yl]propan-2-yl}phenyl)pyrimidin-2-amine], the IC50 in test [1] stood at 7.4 nM; in test [2], 250 nM.

For `COCCNc1ccc(-c2nc(C(C)(c3ccc(-c4cnc(N)nc4)cc3)C3CC3)no2)cn1` (stereo not shown) [Example 38, 5-{4-[1-cyclopropyl-1-(5-{6-[(2-methoxyethyl)amino]pyridin-3-yl}-1,2,4-oxadiazol-3-yl)ethyl]phenyl}pyrimidin-2-amine], the IC50 in test [1] came out at 2.2 nM; in test [2], 97 nM.

On to `CC(C)(O)CNc1ccc(-c2nc(C(C)(c3ccc(-c4cnc(N)nc4)cc3)C3CC3)no2)cn1` (stereo not shown) [Example 39, 1-{[5-(3-{1-[4-(2-aminopyrimidin-5-yl)phenyl]-1-cyclopropylethyl}-1,2,4-oxadiazol-5-yl)pyridin-2-yl]amino}-2-methylpropan-2-ol], for which the IC50 in test [1] was found to be 2.1 nM; in test [2] it was 110 nM.

As to `CC(O)CNc1ccc(-c2nc(C(C)(c3ccc(-c4cnc(N)nc4)cc3)C3CC3)no2)cn1` (stereo not shown) [Example 40, 1-{[5-(3-{1-[4-(2-aminopyrimidin-5-yl)phenyl]-1-cyclopropylethyl}-1,2,4-oxadiazol-5-yl)pyridin-2-yl]amino}propan-2-ol], the IC50 in test [1] turned out to be 2.3 nM; in test [2], 100 nM.

Take `CC(c1ccc(-c2cnc(N)nc2)cc1)(c1noc(-c2ccc(NCCS(C)(=O)=O)nc2)n1)C1CC1` (stereo not shown) [Example 41, 5-(4-{1-cyclopropyl-1-[5-(6-{[2-(methylsulfonyl)ethyl]amino}pyridin-3-yl)-1,2,4-oxadiazol-3-yl]ethyl}phenyl)pyrimidin-2-amine]: the IC50 in test [1] is 2.2 nM; in test [2], 170 nM.

Take `COCCNc1cnc(-c2nc(C(C)(c3ccc(-c4cnc(N)nc4)cc3)C3CC3)no2)cn1` (stereo not shown) [Example 42, 5-{4-[1-cyclopropyl-1-(5-{5-[(2-methoxyethyl)amino]pyrazin-2-yl}-1,2,4-oxadiazol-3-yl)ethyl]phenyl}pyrimidin-2-amine]: the IC50 amounted to 1.5 nM in test [1] and 25 nM in test [2].

Regarding `CC(c1ccc(-c2cnc(N)nc2)cc1)(c1noc(-c2cnn(C3COC3)c2)n1)C1CC1` (stereo not shown) [Example 43, 5-[4-(1-cyclopropyl-1-{5-[1-(oxetan-3-yl)-1H-pyrazol-4-yl]-1,2,4-oxadiazol-3-yl}ethyl)phenyl]pyrimidin-2-amine], the IC50 in test [1] came out at 2.5 nM; in test [2], 30 nM.

For `CC(C)(O)CNc1cnc(-c2nc(C(C)(c3ccc(-c4cnc(N)nc4)cc3)C3CC3)no2)cn1` (stereo not shown) [Example 44, 1-{[5-(3-{1-[4-(2-aminopyrimidin-5-yl)phenyl]-1-cyclopropylethyl}-1,2,4-oxadiazol-5-yl)pyrazin-2-yl]amino}-2-methylpropan-2-ol], the IC50 amounted to 2.2 nM in test [1] and 150 nM in test [2].

On to `CC(C)(CO)Nc1cnc(-c2nc(C(C)(c3ccc(-c4cnc(N)nc4)cc3)C3CC3)no2)cn1` (stereo not shown) [Example 45, 2-{[5-(3-{1-[4-(2-aminopyrimidin-5-yl)phenyl]-1-cyclopropylethyl}-1,2,4-oxadiazol-5-yl)pyrazin-2-yl]amino}-2-methylpropan-1-ol], for which the IC50 is 3.1 nM in test [1] and 140 nM in test [2].

Turning to `C[C@@](c1ccc(-c2cnc(N)nc2)cc1)(c1noc(-c2cn[nH]c2)n1)C1CC1` [Example 48, 5-(4-{(R)-1-cyclopropyl-1-[5-(1H-pyrazol-4-yl)-[1,2,4]oxadiazol-3-yl]-ethyl}-phenyl)-pyrimidin-2-ylamine], the IC50 was 6.8 nM in test [1] and 190 nM in test [2].

With `C[C@](c1ccc(-c2cnc(N)nc2)cc1)(c1noc(-c2cn[nH]c2)n1)C1CC1` [Example 49, 5-(4-{(1S)-1-cyclopropyl-1-[5-(1H-pyrazol-4-yl)-1,2,4-oxadiazol-3-yl]ethyl}phenyl)pyrimidin-2-amine], the IC50 amounted to 19 nM in test [1] and 680 nM in test [2].

In the case of `CC(C)(O)CNc1cnc(-c2nc([C@@](C)(c3ccc(-c4cnc(N)nc4)cc3)C3CC3)no2)cn1` [Example 50, 1-{[5-(3-{(1R)-1-[4-(2-aminopyrimidin-5-yl)phenyl]-1-cyclopropylethyl}-1,2,4-oxadiazol-5-yl)pyrazin-2-yl]amino}-2-methylpropan-2-ol], the IC50 is 1.3 nM in test [1] and 95 nM in test [2].

For the compound `CC(C)(O)CNc1cnc(-c2nc([C@](C)(c3ccc(-c4cnc(N)nc4)cc3)C3CC3)no2)cn1` [Example 51, 1-{[5-(3-{(1S)-1-[4-(2-aminopyrimidin-5-yl)phenyl]-1-cyclopropylethyl}-1,2,4-oxadiazol-5-yl)pyrazin-2-yl]amino}-2-methylpropan-2-ol], the IC50 in test [1] came out at 3.9 nM; in test [2] it was 140 nM.

For the compound `COCCn1cc(-c2nc([C@@](C)(c3ccc(-c4cnc(N)nc4)cc3)C3CC3)no2)cn1` [Example 52, 5-{4-[(1R)-1-cyclopropyl-1-{5-[1-(2-methoxyethyl)-1H-pyrazol-4-yl]-1,2,4-oxadiazol-3-yl}ethyl]phenyl}pyrimidin-2-amine], the IC50 in test [1] came to 2.4 nM; in test [2] it was 26 nM.

Take `COCCn1cc(-c2nc([C@](C)(c3ccc(-c4cnc(N)nc4)cc3)C3CC3)no2)cn1` [Example 53, 5-{4-[(1S)-1-cyclopropyl-1-{5-[1-(2-methoxyethyl)-1H-pyrazol-4-yl]-1,2,4-oxadiazol-3-yl}ethyl]phenyl}pyrimidin-2-amine]: the IC50 in test [1] came to 27 nM; in test [2] it was 450 nM.

In the case of `C[C@@](c1ccc(-c2cnc(N)nc2)cc1)(c1noc(-c2cnn(C3COC3)c2)n1)C1CC1` [Example 54, 5-{4-[(1R)-1-cyclopropyl-1-{5-[1-(oxetan-3-yl)-1H-pyrazol-4-yl]-1,2,4-oxadiazol-3-yl}ethyl]phenyl}pyrimidin-2-amine], the IC50 in test [1] is 2.6 nM; in test [2], 27 nM.

As to `C[C@](c1ccc(-c2cnc(N)nc2)cc1)(c1noc(-c2cnn(C3COC3)c2)n1)C1CC1` [Example 55, 5-{4-[(1S)-1-cyclopropyl-1-{5-[1-(oxetan-3-yl)-1H-pyrazol-4-yl]-1,2,4-oxadiazol-3-yl}ethyl]phenyl}pyrimidin-2-amine], the IC50 is 11 nM in test [1] and 200 nM in test [2].

In the case of `Cn1cc(-c2nc(C(c3ccc(-c4cnc(N)nc4)cc3)C(C)(C)C)no2)cn1` (stereo not shown) [Example 58, 5-(4-{2,2-dimethyl-1-[5-(1-methyl-1H-pyrazol-4-yl)-1,2,4-oxadiazol-3-yl]propyl}phenyl)pyrimidin-2-amine], the half-inhibitory concentration (IC50) in test [1] was 11 nM; in test [2], 190 nM.

Regarding `CN(C)C(=O)Cn1cc(-c2nc(C(C)(c3ccc(-c4cnc(N)nc4)cc3)C3CC3)no2)cn1` (stereo not shown) [Example 59, 2-[4-(3-{1-[4-(2-aminopyrimidin-5-yl)phenyl]-1-cyclopropylethyl}-1,2,4-oxadiazol-5-yl)-1H-pyrazol-1-yl]-N,N-dimethylacetamide], the IC50 in test [1] amounted to 1.1 nM; in test [2], 76 nM.

For `CNC(=O)Cn1cc(-c2nc(C(C)(c3ccc(-c4cnc(N)nc4)cc3)C3CC3)no2)cn1` (stereo not shown) [Example 60, 2-[4-(3-{1-[4-(2-aminopyrimidin-5-yl)phenyl]-1-cyclopropylethyl}-1,2,4-oxadiazol-5-yl)-1H-pyrazol-1-yl]-N-methylacetamide], the IC50 is 4 nM in test [1] and 140 nM in test [2].

Regarding `Cn1cc(-c2nc([C@@](C)(c3ccc(-c4cnc(N)nc4)cc3)C3CC3)no2)cn1` [Example 61, 5-(4-{(1R)-1-cyclopropyl-1-[5-(1-methyl-1H-pyrazol-4-yl)-1,2,4-oxadiazol-3-yl]ethyl}phenyl)pyrimidin-2-amine], the IC50 in test [1] is 1.3 nM; in test [2], 15 nM.
